We go through 2 molecules from US20230057309A1, “Inhibitors of DREAM Complex Assembly and/or Function For Use In Repairing DNA Damage” (priority 2021, published 2023).

In test [1] the test system is U2OS cells. Put plainly: MMS-induced apoptosis in quiescent U2OS cells (Annexin V / 7-AAD FACS). The following applies: MMS 2 mM for 2 hours; 24 h after treatment; harmine 10 μM, INDY 25 μM. It counts as cell-based, human. The protocol:
(§1) U2OS were cultured in DMEM, high glucose GlutaMAX Supplement, Pyruvate (Thermo Fisher Scientific, 31966047) with 10% fetal bovine serum (FBS; Biochrom GmbH, S0615) and 1% Penicillin-Streptomycin (Thermo Fisher Scientific, 15140112). Cells were kept at 37° C. in a 5% CO2 incubator (Binder). Cell dissociation from the plates was performed with Accutase (Sigma, A6964). Cells were cultivated in FBS-free medium for 48 hours before genotoxic treatment were applied. […] Before the genotoxic treatment, cells were washed with FBS-free medium. For the UV treatment, medium was removed from the plates and cells were irradiated using 254 nm UV-C light Phillips UV6 bulbs. The MMS treatment was performed by adding MMS at 2 mM for 2 hours, followed by 3 washes with FBS-free medium. Quantification via FACS of cell death and apoptosis was performed 24 hours after genotoxic treatment.
(§2) Collected cells were incubated in Annexin V Binding buffer (BioLegend, 422201) with Pacific Blue Annexin V (BioLegend, 640917) and 7-AAD (Thermo Fisher Scientific, 00699350) at 4° C. for 15 minutes. Cells were measured using a MACSQuant VYB (Miltenyi Biotec) and analyzed using FlowJo (BD).

In test [2] the target is DYRK1A kinase (Homo sapiens, UniProt Q13627). The following applies: cited from earlier work.
Test [3] deals with U2OS cells. Put plainly: UV-induced apoptosis in quiescent U2OS cells (Annexin V / 7-AAD FACS). It counts as cell-based, human. The conditions noted are these: UV 2 mJ·cm-2; 24 h after UV; harmine 10 μM, INDY 25 μM. The protocol:
as §1, §2

Test [4] concerns U2OS cells. The experiment in a line: DNA repair kinetics in U2OS cells, γH2AX antibody staining after UV. The class given is cell-based, human. The following applies: quiescent cells, hours after UV; harmine 10 μM, INDY 25 μM.
Procedure: Before the genotoxic treatment, cells are washed with FBS-free medium. For the UV treatment, medium is removed from the plates and cells are irradiated using 254 nm UV-C light Phillips UV6 bulbs. The MMS treatment is performed, e.g., by adding MMS at 2 mM for 2 hours, followed by 3 washes with FBS-free medium. Cells are fixed in a solution comprising PFA on HistoBond+ Adhesion Microscope Slides (Marienfeld, 0810461). To estimate the total amount of DNA damage per cell, the fixed cells are incubated overnight at 4° C. in PBS comprising anti-γH2AX antibody (Mouse anti-phospho-Histone H2A.X (Ser139), clone JBW301, Millipore, Cat #: 05-636), then washed 5 times 10 minutes in a suitable buffer at RT, prior to incubation for at least two hours with a secondary antibody. Finally, the slides are washed another 5 times 10 minutes in PBS-T and dried overnight. The next morning, slides are sealed with a cover slip.
Test [5] has as its system DREAM target genes. The experiment in a line: RNA-seq of quiescent (serum-starved) U2OS cells treated with DYRK1A inhibitors. It counts as cell-based, human. The following applies: 24 h treatment, harmine 10 μM, INDY 25 μM; for number of the 67 DNA repair genes bound by DREAM that were upregulated: FDR<0.01. As to the method: as §1
For the qPCRs and RNA-seq on L1 worms, around 10.000 (qPCR) or 40.000 (RNA-seq) bleach-synchronized L1 worms in triplicates (qPCR) or quadruplicates (RNA-seq) per strain and condition were placed in seeded NGM plates and left at 20° C. for 3 hours. Posteriorly, they were irradiated with a 310 nm UV-B light Philips UV6 bulb in a Waldmann UV236B irradiation device or left unirradiated, and left for 6 more hours to allow the DNA damage related transcriptional changes to be taking place. After this, worms were collected, washed three times with M9 buffer, and the pellet was placed in a tube containing 1 ml of TRIzol™ (Invitrogen, 15596018) and 1 mm zirconia/silica beads (Biospec Products, 11079110z). To extract the RNA, worms were first disrupted with a Precellys24 (Bertin Instruments, P000669-PR240-A), and then the RNA isolation was performed by using the RNeasy Mini Kit (QIAGEN, 74106) following the manufacturer's specifications, except for the use of 1-bromo-3-chloropropane (Sigma, B9673) instead of chloroform. The RNA was quantified using NanoDrop™ 8000 (ThermoFisher, ND-8000-GL). […] Cells were disrupted with RLT buffer and homogenized with QIAshredder spin columns (QIAGEN, 79656).
The human RNA-seq data were processed with Salmon-1.1 (Patro et al., 2017) against a decoy-aware transcriptome (gencode.v37 transcripts and the GRCh38.primary_assembly genome) with the following parameter: --validateMappings -gcBias -seqBias. The output was imported and summarized to the gene-level with tximport (1.14.2) (Soneson, Love and Robinson, 2016) and differential gene analysis was done with edgeR (3.28.1) (Robinson, McCarthy and Smyth, 2009).

For test [6], the target named is T1, monoamine oxidase A (MAOA) (Homo sapiens, UniProt P21397).
T1 sequence (P21397 1-527): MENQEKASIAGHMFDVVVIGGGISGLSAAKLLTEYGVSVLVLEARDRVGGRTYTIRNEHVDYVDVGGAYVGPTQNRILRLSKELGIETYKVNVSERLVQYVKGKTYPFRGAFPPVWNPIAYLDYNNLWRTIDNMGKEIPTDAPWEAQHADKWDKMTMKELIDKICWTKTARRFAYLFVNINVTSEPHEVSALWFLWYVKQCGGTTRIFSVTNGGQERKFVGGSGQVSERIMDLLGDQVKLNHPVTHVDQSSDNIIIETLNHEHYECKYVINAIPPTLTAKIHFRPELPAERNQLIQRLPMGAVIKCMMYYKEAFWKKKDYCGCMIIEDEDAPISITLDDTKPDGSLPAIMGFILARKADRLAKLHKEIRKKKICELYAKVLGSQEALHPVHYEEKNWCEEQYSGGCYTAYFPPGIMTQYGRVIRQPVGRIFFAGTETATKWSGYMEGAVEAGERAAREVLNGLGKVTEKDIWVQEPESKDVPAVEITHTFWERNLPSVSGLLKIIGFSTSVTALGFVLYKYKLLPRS
The following applies: cited from earlier work.

The subject of test [7] is Podocyte-specific Ercc1 knockout mice. The experiment in a line: Kidney function (proteinuria) in podocyte-specific Ercc1 knockout mice. The class given is in vivo, mouse. The following applies: 10 mg/kg/day for 4 weeks from 3 weeks of age; urine 8 and 11 days afterwards. As to the method: Proteinuria as endpoint for kidney dysfunction was assessed by Coomassie brilliant blue staining in urine 8 days (FIG. 7A) and 11 days (FIG. 7B) afterwards.
Proteinuria as endpoint for kidney dysfunction was assessed in urine 8 days and 11 days afterwards by assessing overall protein levels in urine samples via Coomassie brilliant blue staining after electrophoretic separation in a polyacrylamide gel.

In test [8] the test system is Ercc1−/− mice. The experiment in a line: Photoreceptor cell loss in Ercc1 knockout mouse model of premature aging (TUNEL staining of retina). The class given is in vivo. The conditions noted are these: 10 mg/kg i.p. 3 times/week from P3, retina at P15. From the text: Mice were sacrificed at postnatal day P15 for retina tissue isolation. Tissues were embedded in optimal cutting temperature (OCT) compound, cryosectioned and stained using in situ cell detection kit (TUNEL staining) (11684817910, Roche).

Regarding `CCN1/C(=C/C(C)=O)Sc2ccc(O)cc21` [INDY, (1Z)-1-(3-ethyl-5-hydroxy-2(3H)-benzothiazoylidene)-2-propanone], the “resistance to MMS (apoptotic cells)” value in test [1] is given as “boosted the resistance to the alkylating agent MMS”. Further, the “DYRK1A inhibition, selectivity” value in test [2] is reported as “highly selective DYRK1A inhibitor”. Moreover, the “UV-induced apoptosis (annexin V positive + annexin V/7-AAD positive cells) vs mock treated cells” value in test [3] is given as “highly significant reduction in UV-induced apoptosis”. In addition, in test [4], the “γH2AX amount after UV irradiation vs control cells” value was “significantly lower amounts of γH2AX”. Further, in test [5], the “expression of DREAM target genes” value is recorded as “upregulation of DREAM target genes” and the “number of the 67 DNA repair genes bound by DREAM that were upregulated” value came to 46.

Consider `COc1ccc2c(c1)[nH]c1c(C)nccc12` [harmine], for which the MAOA inhibition entry in test [6] was “could also inhibit monoamine oxidase A (MAOA)”. In addition, in test [7], the “proteinuria (Coomassie staining of urine)” value was “mitigation of proteinuria”. In test [1], the “resistance to MMS (apoptotic cells)” value was “boosted the resistance to the alkylating agent MMS”. In addition, the “apoptosis in photoreceptor cells (TUNEL)” value in test [8] is “prevented apoptosis in photoreceptor cells”. Further, the “UV-induced apoptosis (annexin V positive + annexin V/7-AAD positive cells) vs mock treated cells” value in test [3] was “highly significant reduction in UV-induced apoptosis”. In test [5], the “expression of DREAM target genes” value is “upregulation of DREAM target genes” and the “number of the 67 DNA repair genes bound by DREAM that were upregulated” value is on record as 58.
